These results are taken from US6461997B1, “Triazole sulfones having herbicidal activity” (Monsanto Technology LLC, priority 1999, dated 2002).

One assay has as its system SORVU (shattercane). The assay can be described thus: Pre-emergence herbicidal activity, warm season. The following applies: GR80 = lowest tested rate (300, 100, 30, 10 g/ha) with 80% or greater inhibition; approx. 14 days after treating; 30/21° C. The class given is in vivo, Sorghum vulgare. An outline of the steps: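 Activity is expressed as the rate giving 80% inhibition, with 300, 100, 30 and 10 g/ha typically tested. An asterisk marks activity short of 80% at the top rate. Warm-season grasses were held at 30/21 °C; cool-season blackgrass and wild buckwheat at 18/13 °C; scoring at about 14 days.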

For another assay, the system named is soybean (GLYMX). The experiment in a line: Selectivity test, PPI, warm season crop. It counts as in vivo, Glycine max. The following applies: PPI application; for inhibition at 10 g/ha / inhibition at 30 g/ha / inhibition at 100 g/ha / inhibition at 300 g/ha / inhibition at 900 g/ha: Glycine max, read-out: Percent inhibition GLYMX. As for the experimental part:
(§1) A pre-prepared topsoil mixture (described above) was placed in a pot and compacted to a depth of 1.0 to 1.25 cm from the top of the pot. Seeds of each of several monocotyledonous and dicotyledonous annual plant species were placed on top of the soil. A sufficient quantity of soil to cover the seeds and level fill the pot was weighed into an open container. A known amount of the test compound was dissolved or suspended in an organic solvent and applied by spraying to this cover soil. The cover soil was thoroughly mixed to distribute the test compound throughout the cover soil, and was then applied as a cover layer over the seeds. Untreated soil was used as a cover layer for control pots. After treatment the plants were placed in a greenhouse where they received 0.64 cm of overhead irrigation. All subsequent watering consisted of a light overhead mist and/or subirrigation as needed for germination and growth. Tables 9 and 10 below relate to warm season plant species which were placed after pre-emergence treatment in a greenhouse with a 30/21° C. day/night temperature regime. Tables 11 and 12 below relates to cool season plant species placed after pre-emergence treatment in a greenhouse or growth chamber with an 18/13° C. day/night temperature regime. Only the compounds of Examples 1, 6, 8, 11, 13 and 15-20 were included in PPI tests.
(§2) Approximately 14 days after planting and treating, the plants were observed and herbicidal efficacy recorded as percent inhibition by comparison with untreated plants.
Additional pre-emergence and PPI tests were conducted by the procedures described above, on warm and cool season weed species in the presence of crop species, to assess herbicidal selectivity. Crop species included in warm season tests were corn (Zea mays, ZEAMX), rice (Oryza sativa, ORYSA) and soybean (Glycine max, GLYMX). Crop species included in cool season tests were wheat (Triticum aestivum, TRZAW), barley (Hordeunm vulgare, HORVX) and oilseed rape (Brassica napus, BRSNS).
Tables 15 and 16 relate to pre-emergence and PPI tests respectively on warm season species. Table 17 relates to pre-emergence tests on cool season species.

A further assay has as its system ABUTH (velvetleaf). The experiment in a line: Pre-plant incorporated (PPI) herbicidal activity, warm season. It counts as in vivo, Abutilon theophrasti. As to conditions: for inhibition at 10 g/ha / inhibition at 30 g/ha / inhibition at 100 g/ha / inhibition at 300 g/ha / inhibition at 900 g/ha: Abutilon theophrasti, read-out: Percent inhibition ABUTH; for inhibition at 10 g/ha / inhibition at 30 g/ha / inhibition at 100 g/ha / inhibition at 300 g/ha / inhibition at 900 g/ha / Percent inhibition ABUTH: PPI application; for PPI activity (GR80) ABUTH: pre-plant incorporated, GR80 = lowest tested rate with 80% or greater inhibition, approx. 14 days after treating, 30/21° C. As for the experimental part: (§3) In another set of tests, the pre-plant incorporated (PPI) activity of compounds of this invention was evaluated on the same species as for the pre-emergence tests described above. In the PPI tests the following procedure, designed to simulate PPI application, was used.
as §1, §2

In assay [1] the test system is GALAP (catchweed bedstraw). The assay can be described thus: Pre-plant incorporated (PPI) herbicidal activity, cool season. It counts as in vivo, Galium aparine. The following applies: for inhibition at 10 g/ha / inhibition at 30 g/ha / inhibition at 100 g/ha / inhibition at 300 g/ha / inhibition at 900 g/ha: Galium aparine, read-out: Percent inhibition GALAP; for inhibition at 10 g/ha / inhibition at 30 g/ha / inhibition at 100 g/ha / inhibition at 300 g/ha / inhibition at 900 g/ha / Percent inhibition GALAP: weed, PPI application; for PPI activity GR80, GALAP: pre-plant incorporated, lowest tested rate with 80% or greater inhibition, about 14 days. The protocol: as §3, §1, §2

In a further assay the test system is ALOMY (blackgrass). The experiment in a line: Post-emergence herbicidal activity, cool season. It counts as in vivo, Alopecurus myosuroides. The following applies: abraded plants sprayed at 300, 100, 30 and 10 g/ha; about 14 days after treatment. An outline of the steps:
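Seedlings grown from seed in topsoil pots were treated 9 to 14 days after planting, foliage first abraded with garnet particles, then sprayed with test compound in 50:50 acetone/water at 300, 100, 30 and 10 g/ha (3,100 l/ha). Kept at 18/13° C. day/night, percent inhibition versus abraded unsprayed controls was scored about 14 days later and GR80 assigned.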

For `C=CCC(F)(F)S(=O)(=O)c1ncn(C(=O)N(CC)CC)n1` [Example 17, 1-(N,N-diethylcarbamoyl)-3-[(1,1-difluoro-3-butenyl)sulfonyl]-1,2,4-triazole], the “Pre-emergence activity (GR80) SORVU” value in the assay with SORVU (shattercane) was determined as 100 g/ha. Moreover, the inhibition at 10 g/ha (with soybean (GLYMX) (10 g/ha); in the assay with ABUTH (velvetleaf) (10 g/ha); in assay [1] (10 g/ha)) was 0% each time. For the same compound, the inhibition – broadly, how much of the control response was suppressed – at 30 g/ha with soybean (GLYMX) (30 g/ha) worked out at 0%; with ABUTH (velvetleaf) (30 g/ha), 0%; in assay [1] (30 g/ha) it was 60%. For the same compound, the inhibition at 100 g/ha in the assay with soybean (GLYMX) (100 g/ha) was 0%; with ABUTH (velvetleaf) (100 g/ha), 0%; in assay [1] (100 g/ha), 40%. The inhibition at 300 g/ha in the assay with soybean (GLYMX) (300 g/ha) amounted to 20%; in the assay with ABUTH (velvetleaf) (300 g/ha), 40%; in assay [1] (300 g/ha) it was 80%. Also, the figures for the inhibition at 900 g/ha (in the assay on soybean (GLYMX) (900 g/ha); with ABUTH (velvetleaf) (900 g/ha); in assay [1] (900 g/ha)) were 80%, 100% and 100%, respectively. Further, the “PPI activity (GR80) ABUTH” value in the assay on ABUTH (velvetleaf) is listed as 100 g/ha. In addition, in assay [1], the “PPI activity GR80, GALAP” value is recorded as 100 g/ha. Moreover, the “Post-emergence activity GR80, ALOMY” value in the assay on ALOMY (blackgrass) was “[empty]”.

For the compound `C=C(C)CC(F)(F)S(=O)(=O)c1ncn(C(=O)N(CC)CC)n1` [Example 18], in the assay on SORVU (shattercane), the “Pre-emergence activity (GR80) SORVU” value was “* (activity observed, at least at highest rate, but <80% inhibition)”. Besides, the values for the inhibition at 10 g/ha (with soybean (GLYMX) (10 g/ha); in the assay with ABUTH (velvetleaf) (10 g/ha); in assay [1] (10 g/ha)) were 0%, 0% and 70%, respectively. The inhibition at 30 g/ha in the assay with soybean (GLYMX) (30 g/ha) is 0%; in the assay on ABUTH (velvetleaf) (30 g/ha), 0%; in assay [1] (30 g/ha), 60%. In addition, the results for the inhibition at 100 g/ha (with soybean (GLYMX) (100 g/ha); in the assay on ABUTH (velvetleaf) (100 g/ha); in assay [1] (100 g/ha)) were 0%, 0% and 70%, respectively. Moreover, the inhibition at 300 g/ha with soybean (GLYMX) (300 g/ha) is 0%; in the assay on ABUTH (velvetleaf) (300 g/ha), 70%; in assay [1] (300 g/ha) it was 100%. In addition, the values for the inhibition at 900 g/ha (with soybean (GLYMX) (900 g/ha); with ABUTH (velvetleaf) (900 g/ha); in assay [1] (900 g/ha)) were 50%, 90% and 100%, respectively. For the same compound, the “PPI activity (GR80) ABUTH” value in the assay on ABUTH (velvetleaf) was 100 g/ha. Moreover, the “PPI activity GR80, GALAP” value in assay [1] is listed as 100 g/ha. For the same compound, in the assay with ALOMY (blackgrass), the “Post-emergence activity GR80, ALOMY” value was “[empty]”.

As for `C=C(Br)CC(F)(F)S(=O)(=O)c1ncn(C(=O)N(CC)CC)n1` [Example 19], the “Pre-emergence activity (GR80) SORVU” value in the assay with SORVU (shattercane) came to 300 g/ha. Further, the values for the inhibition at 10 g/ha (in the assay with soybean (GLYMX) (10 g/ha); in the assay with ABUTH (velvetleaf) (10 g/ha); in assay [1] (10 g/ha)) were 0%, 0% and 85%, respectively. Moreover, the inhibition at 30 g/ha in the assay with soybean (GLYMX) (30 g/ha) turned out to be 0%; with ABUTH (velvetleaf) (30 g/ha), 0%; in assay [1] (30 g/ha) it was 100%. The inhibition at 100 g/ha in the assay with soybean (GLYMX) (100 g/ha) was determined as 0%; with ABUTH (velvetleaf) (100 g/ha), 0%; in assay [1] (100 g/ha) it was 100%. For the same compound, the inhibition at 300 g/ha came to 0% in the assay on soybean (GLYMX) (300 g/ha), 0% with ABUTH (velvetleaf) (300 g/ha) and 50% in assay [1] (300 g/ha). Moreover, the inhibition at 900 g/ha was 20% in the assay with soybean (GLYMX) (900 g/ha), 60% in the assay with ABUTH (velvetleaf) (900 g/ha) and 100% in assay [1] (900 g/ha). In addition, the “PPI activity (GR80) ABUTH” value with ABUTH (velvetleaf) is 30 g/ha. Moreover, in assay [1], the “PPI activity GR80, GALAP” value is recorded as 100 g/ha. Besides, the “Post-emergence activity GR80, ALOMY” value in the assay with ALOMY (blackgrass) was “[empty]”.

Turning to `C=C(CC(F)(F)S(=O)(=O)c1ncn(C(=O)N(CC)CC)n1)C[Si](C)(C)C` [Example 20], the “Pre-emergence activity (GR80) SORVU” value in the assay on SORVU (shattercane) is recorded as 300 g/ha. Further, the “Percent inhibition GLYMX” value is 0% in the assay on soybean (GLYMX) (10 g/ha); 0% in the assay on soybean (GLYMX) (30 g/ha); 0% in the assay on soybean (GLYMX) (100 g/ha); 0% in the assay on soybean (GLYMX) (300 g/ha); 30% in the assay with soybean (GLYMX) (900 g/ha). In addition, the “Percent inhibition ABUTH” value in the assay on ABUTH (velvetleaf) (10 g/ha) is 0%; in the assay with ABUTH (velvetleaf) (30 g/ha) it was 0%; in the assay on ABUTH (velvetleaf) (100 g/ha), 0%; in the assay on ABUTH (velvetleaf) (300 g/ha), 30%; in the assay on ABUTH (velvetleaf) (900 g/ha) it was 80%. Moreover, the “PPI activity (GR80) ABUTH” value with ABUTH (velvetleaf) stood at 300 g/ha. In addition, in assay [1], the “PPI activity GR80, GALAP” value was “[empty]”. The “Percent inhibition GALAP” value was 0% in assay [1] (10 g/ha); 0% in assay [1] (30 g/ha); 50% in assay [1] (100 g/ha); 90% in assay [1] (300 g/ha); 100% in assay [1] (900 g/ha). Besides, the “Post-emergence activity GR80, ALOMY” value with ALOMY (blackgrass) is “[empty]”.
